In US9611230B2, “1,3,4-oxadiazole benzoic acid compounds and their use for nonsense suppression and the treatment of disease” (PTC Therapeutics, Inc., priority 2004, dated 2017):
Values joined by “and” are separate entries in the source; they are usually repeats but may differ in a detail not shown here. Equal values may be shown once.

test system: full-length luciferase protein produced by suppression of the premature termination codon; assay: Western blot of full-length luciferase after immunoprecipitation (epitope-tagged nonsense constructs); format: cell-based, Human; conditions: printed in the UAAA column of Table 3
From the text: The nonsense suppression activity in an assay as described above is shown in the Table 3 below, for a construct with a UAG nonsense mutation at position 190, followed by an adenine nucleotide in-frame, (UAGA); and a construct with a UAA nonsense mutation at position 190, followed by an adenine nucleotide in-frame, (UAAA).
Another assay of the present invention can evaluate compounds that promote nonsense mutation suppression. The luciferase constructs described above in FIG. 1 are engineered to harbor two epitope tags in the N-terminus of the luciferase protein. Based on luciferase protein production, these constructs qualitatively assess the level of translation-readthrough. The presence of the full-length luciferase protein produced by suppression of the premature termination codon is measured by immunoprecipitation of the suppressed luciferase protein (using an antibody against a His tag) followed by western blotting using an antibody against the second epitope (the Xpress™ epitope; Invitrogen®; Carlsbad, Calif.). These constructs are depicted in FIG. 2.
Cells that harbor the constructs of FIG. 2 show increased full-length protein production when treated with a compound of the present invention. After treatment for 20 hours, cells containing the constructs of FIG. 2 are collected and an antibody recognizing the His epitope is used to immunoprecipitate the luciferase protein. Following immunoprecipitation, western blotting is performed using the antibody to the Xpress™ epitope (Invitrogen®; Carlsbad, Calif.) to detect the truncated luciferase (produced when no nonsense suppression occurs) and to detect the full-length protein (produced by suppression of the nonsense codon). Treatment of cells with a test compound produces full-length protein and not a readthrough protein (See e.g. FIG. 3). The readthrough protein is produced if suppression of the normal termination codon occurs. Compounds of the present invention suppress the premature, i.e. nonsense mutation, but not the normal termination codon in the luciferase mRNA.

Compound | western blot signal (POS WB)
O=C(O)c1cccc(-c2cc(-c3ccc(Cl)cc3)on2)c1 [Compound No. 479, 3-[5-(4-chlorophenyl)isoxazol-3-yl]benzoic acid] | POSWB
O=C(O)c1ccc(-c2ncc(-c3ccc(F)cc3F)o2)cc1 [Compound No. 548, 4-[5-(2,4-difluorophenyl)oxazol-2-yl]benzoic acid] | POSWB
CCOc1ccc(-c2cnc(-c3cccc(C(=O)O)c3)o2)cc1 [Compound 595] | POSWB

test system: not given; assay: not given; conditions: not given

Compound | melting point
O=C(O)c1cccc(-c2cc(-c3ccc(F)cc3F)no2)c1 [Compound 499] | > 278.5 °C
COc1cccc(-c2cc(-c3cccc(C(=O)O)c3)no2)c1 [Compound 481] | 201 to 203 °C
O=C(O)c1cccc(-c2nnc(-c3ccc(N4CCCC4)cc3)o2)c1 [Compound 280] | 274 to 276 °C
O=C(O)c1cccc(-c2nc(-c3cccs3)n[nH]2)c1 [Compound 462] | 282 to 285 °C
COc1ccc(-c2nnc(-c3ccc(C(C)C)cc3)o2)cc1C(=O)O [Compound 402] | 174 to 177 °C
CC(C)(C)c1ccc(-c2nc(-c3ccc(C(=O)O)cc3)no2)cc1 [Compound 141] | 237 to 239 °C
COc1ccccc1-c1n[nH]c(-c2cccc(C(=O)O)c2)n1 [Compound 459] | 287 to 290 °C
O=C(O)c1cccc(-c2cc(-c3ccc(F)cc3F)on2)c1 [Compound 478] | 260 to 262 °C
COc1ccc(-c2n[nH]c(-c3cccc(C(=O)O)c3)n2)cc1OC [Compound 460] | 275 to 278 °C
O=C(O)c1ccc(-c2nnc(-c3ccnc(Cl)c3)o2)cc1 [Compound 225] | > 285 °C
O=C(O)c1cccc(-c2cc(-c3cccc(F)c3)on2)c1 [Compound 475] | 242 to 243 °C
CN(C)c1ccc(-c2nnc(-c3cccc(C(=O)O)c3)o2)cc1 [Compound 4] | 268 to 270 °C
CCOc1ccc(-c2n[nH]c(-c3cccc(C(=O)O)c3)n2)cc1 [Compound 461] | 295 to 298 °C
CC(C)c1cccc(-c2nnc(-c3ccc(C(=O)O)cc3)o2)c1 [Compound 7] | 227 to 229 °C
O=C(O)c1cccc(-c2noc(-c3ccccc3)c2C(=O)O)c1 [Compound 483] | 255 to 257 °C

Results, then the compound that gave them:

melting point | Compound
293 to 295 °C | O=C(O)c1cccc(-c2cc(-c3ccc(Cl)cc3)on2)c1 [Compound No. 479, 3-[5-(4-chlorophenyl)isoxazol-3-yl]benzoic acid]
298 to 299 °C and 301 to 302 °C | O=C(O)c1ccc(-c2ncc(-c3ccc(F)cc3F)o2)cc1 [Compound No. 548, 4-[5-(2,4-difluorophenyl)oxazol-2-yl]benzoic acid]
165 to 167 °C | CC(C)c1ccc(-c2nc(-c3cccc(C(=O)O)c3)ns2)cc1 [Compound No. 323, 3-[5-(4-isopropylphenyl)-[1,2,4]thiadiazol-3-yl]-benzoic acid]
206 to 208 °C | CC(C)c1ccc(-c2csc(-c3cccc(C(=O)O)c3)n2)cc1 [Compound No. 289, 3-[4-(4-isopropylphenyl)thiazol-2-yl]-benzoic acid]
283 to 285 °C | CC(C)c1ccc(-c2ncc(-c3cccc(C(=O)O)c3)[nH]2)cc1 [Compound No. 311, 3-[2-(4-isopropylphenyl)-3H-imidazol-4-yl]benzoic acid]
324 to 326 °C | O=C(O)c1ccc(-c2cc(-c3ccc(F)cc3F)no2)cc1 [Compound 538]
270.5 to 272 °C | O=C(O)c1cccc(-c2cc(-c3ccc(F)cc3)[nH]n2)c1 [Compound No. 552, 3-[5-(4-fluorophenyl)-1H-pyrazol-3-yl]benzoic acid]
269 to 270 °C | O=C(O)c1ccc(-c2ncc(-c3ccc4c(c3)OCO4)o2)cc1 [Compound 557]
207 to 208 °C | Cc1ccccc1-c1cnc(-c2cccc(C(=O)O)c2)o1 [Compound 588]
236 to 239 °C | CC(C)c1ccc(-c2nc(-c3cccc(C(=O)O)c3)co2)cc1 [Compound No. 313, 3-[2-(4-isopropylphenyl)-oxazol-4-yl]benzoic acid]
210 to 213 °C | CC(C)c1ccc(-c2nc(-c3ccc(C(=O)O)cc3)no2)cc1 [Compound No. 275, 4-[5-(4-isopropylphenyl)-[1,2,4]oxadiazol-3-yl]benzoic acid]
223.5 to 225 °C | O=C(O)c1cccc(-c2ncc(-c3ccc(C(F)(F)F)cc3)o2)c1 [Compound 586]
220 to 222 °C | O=C(O)c1ccc(-c2ncc(-c3ccc(Oc4ccccc4)cc3)o2)cc1 [Compound 647]
172 to 176 °C | CC(C)c1ccc(-c2ccc(-c3cccc(C(=O)O)c3)o2)cc1 [Compound No. 322, 3-[5-(4-isopropylphenyl)furan-2-yl]benzoic acid]
150 to 153 °C | CC(C)c1ccc(-c2cnc(-c3cccc(C(=O)O)c3)o2)cc1 [Compound No. 288, 3-[5-(4-isopropylphenyl)-oxazol-2-yl]benzoic acid]
318 to 319 °C | O=C(O)c1ccc(-c2cc(-c3ccc(F)cc3)on2)cc1 [Compound 530]
208 to 209 °C | CC(C)c1ccc(-c2cc(-c3cccc(C(=O)O)c3)cs2)cc1 [Compound No. 348, 3-[5-(4-isopropylphenyl)thiophen-3-yl]benzoic acid]
317 to 319 °C | O=C(O)c1ccc(-c2cc(-c3ccc(F)cc3F)on2)cc1 [Compound 531]
223 to 224 °C | CCOc1ccc(-c2cnc(-c3cccc(C(=O)O)c3)o2)cc1 [Compound 595]
240 to 242 °C | Cc1cccc(-c2ccc(-c3nnc(-c4cccc(C(=O)O)c4)o3)cc2)c1 [Compound No. 281, 3-[5-(3′-methylbiphenyl-4-yl)-[1,3,4]oxadiazol-2-yl]benzoic acid]
297.5 to 299.5 °C | COc1ccc(-c2cc(-c3ccc(C(=O)O)cc3)on2)cc1 [Compound 539]
